Test results published in PubChem BioAssay AID330 (DTP/NCI, 2004).
Values joined by “and” are separate entries in the source; they are usually repeats but may differ in a detail not shown here. Equal values may be shown once. Toxic doses and inconclusive results are not listed. The calls were made as follows: active = survival T/C of 150% or more; inactive = T/C below 125% in these data.

Tested on: P388 leukemia ip, CD2F1 mice, survival T/C
Assay: NCI In Vivo Anticancer Drug Screen. Data for tumor model P388 Leukemia (intraperitoneal) in CD2F1 (CDF1) mice
Conditions: endpoint: median survival time, higher = longer survival
In short: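 Mice carrying the transplanted tumor received test compound or vehicle. Survival was recorded in each group, and the value is the treated-group measurement divided by that of the vehicle-treated control group.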

[1] = dose: 25.0 mg/kg/injection, schedule: Q01DX009 (ip), vehicle: other
[2] = dose: 50.0 mg/kg/injection, schedule: Q01DX009 (ip), vehicle: other
[3] = dose: 100.0 mg/kg/injection, schedule: Q01DX009 (ip), vehicle: other
[4] = dose: 25.0 mg/kg/injection, schedule: Q01DX005 (ip), vehicle: saline with Tween-80
[5] = dose: 50.0 mg/kg/injection, schedule: Q01DX005 (ip), vehicle: saline with Tween-80
[6] = dose: 100.0 mg/kg/injection, schedule: Q01DX005 (ip), vehicle: saline with Tween-80
[7] = dose: 200.0 mg/kg/injection, schedule: Q01DX005 (ip), vehicle: saline with Tween-80
[8] = dose: 12.5 mg/kg/injection, schedule: Q01DX009 (ip), vehicle: saline with Tween-80
[9] = dose: 25.0 mg/kg/injection, schedule: Q01DX009 (ip), vehicle: saline with Tween-80
[10] = dose: 50.0 mg/kg/injection, schedule: Q01DX009 (ip), vehicle: saline
[11] = dose: 100.0 mg/kg/injection, schedule: Q01DX009 (ip), vehicle: saline
[12] = dose: 200.0 mg/kg/injection, schedule: Q01DX009 (ip), vehicle: saline
[13] = dose: 50.0 mg/kg/injection, schedule: Q01DX005 (ip), vehicle: Klucel (hydroxypropylcellulose) (HPC)
[14] = dose: 100.0 mg/kg/injection, schedule: Q01DX005 (ip), vehicle: Klucel (hydroxypropylcellulose) (HPC)
[15] = dose: 200.0 mg/kg/injection, schedule: Q01DX005 (ip), vehicle: Klucel (hydroxypropylcellulose) (HPC)
[16] = dose: 100.0 mg/kg/injection, schedule: Q04DX002 (ip), vehicle: Klucel (hydroxypropylcellulose) (HPC)
[17] = dose: 200.0 mg/kg/injection, schedule: Q04DX002 (ip), vehicle: Klucel (hydroxypropylcellulose) (HPC)
[18] = dose: 400.0 mg/kg/injection, schedule: Q04DX002 (ip), vehicle: Klucel (hydroxypropylcellulose) (HPC)
[19] = dose: 100.0 mg/kg/injection, schedule: Q01DX009 (ip), vehicle: saline with Tween-80
[20] = dose: 100.0 mg/kg/injection, schedule: Q04DX002 (ip), vehicle: saline with Tween-80
[21] = dose: 200.0 mg/kg/injection, schedule: Q04DX002 (ip), vehicle: saline with Tween-80

Measured: T/C

Nc1nc(N)c2c(n1)=NC(c1cccc3ccccc13)N=2 (stereo not given)
inactive: [1] 101 % of control | [2] 106 % of control | [3] 102 % of control | dose: 200.0 mg/kg/injection, schedule: Q01DX009 (ip), vehicle: other 99 % of control | dose: 400.0 mg/kg/injection, schedule: Q01DX009 (ip), vehicle: other 106 % of control

Nc1ccc2ccc(N)cc2c1
inactive: [4] 105 % of control | [5] 98 % of control and 104 % of control | [6] 103 % of control and 113 % of control | [7] 122 % of control and 123 % of control

CC1=C(C)C(=O)OC(C(C)C2CCC3C4CC5OC56C(O)CCC(=O)C6(C)C4CCC23C)C1 (stereo not given)
inactive: dose: 11.3 mg/kg/injection, schedule: Q01DX009 (ip), vehicle: Klucel (hydroxypropylcellulose) (HPC) 101 % of control | dose: 22.6 mg/kg/injection, schedule: Q01DX009 (ip), vehicle: Klucel (hydroxypropylcellulose) (HPC) 101 % of control | dose: 45.2 mg/kg/injection, schedule: Q01DX009 (ip), vehicle: Klucel (hydroxypropylcellulose) (HPC) 100 % of control

O=P(C/C=C/CO)(c1ccccc1)c1ccccc1
inactive: [5] 98 % of control | [6] 98 % of control | [7] 103 % of control

CCCCCCCC(=O)C1C(c2ccc(C(C)C)cc2)CC(=O)C(CCCCCC)C1c1ccc(C(C)C)cc1 (stereo not given)
inactive: dose: 6.25 mg/kg/injection, schedule: Q01DX005 (ip), vehicle: saline with Tween-80 91 % of control | dose: 12.5 mg/kg/injection, schedule: Q01DX005 (ip), vehicle: saline with Tween-80 89 % of control | [4] 99 % of control | [6] 93 % of control | [7] 98 % of control

CC1Cc2c([nH]c3ccc(Cl)cc23)CN1 (stereo not given)
inactive: dose: 3.12 mg/kg/injection, schedule: Q01DX009 (ip), vehicle: saline with Tween-80 106 % of control | dose: 6.25 mg/kg/injection, schedule: Q01DX009 (ip), vehicle: saline with Tween-80 100 % of control | [8] 101 % of control | [9] 101 % of control

NC(=O)CSc1ncnc2nc[nH]c12
inactive: [10] 97 % of control | [11] 100 % of control | [12] 102 % of control

CCCCCCCCCCCCCCCCCCON
inactive: dose: 100.0 mg/kg/injection, schedule: Q04DX003 (ip), vehicle: Klucel (hydroxypropylcellulose) (HPC) 97 % of control | dose: 200.0 mg/kg/injection, schedule: Q04DX003 (ip), vehicle: Klucel (hydroxypropylcellulose) (HPC) 92 % of control | dose: 400.0 mg/kg/injection, schedule: Q04DX003 (ip), vehicle: Klucel (hydroxypropylcellulose) (HPC) 94 % of control

COc1ccc(/C=C/c2ccc3ccccc3[n+]2C)c(OC)c1OC
inactive: dose: 0.63 mg/kg/injection, schedule: Q01DX009 (ip), vehicle: Klucel (hydroxypropylcellulose) (HPC) 107 % of control | dose: 1.25 mg/kg/injection, schedule: Q01DX009 (ip), vehicle: Klucel (hydroxypropylcellulose) (HPC) 110 % of control | dose: 5.0 mg/kg/injection, schedule: Q01DX009 (ip), vehicle: Klucel (hydroxypropylcellulose) (HPC) 107 % of control

COc1ccccc1/C=C1/C(=O)N(c2ccc([N+](=O)[O-])cc2)N=C1C
inactive: [13] 102 % of control | [14] 103 % of control | [15] 101 % of control

Cn1cnc2cc(Cl)c([N+](=O)[O-])cc2c1=O
inactive: [16] 102 % of control | [17] 110 % of control | [18] 102 % of control

O=C1C=CC(=O)C(c2ccc(Cl)cc2)=C1
inactive: [8] 98 % of control | [9] 90 % of control | [19] 90 % of control

CCNC(=O)CCC(NS(=O)(=O)c1ccc(NC(C)=O)cc1)C(=O)O (stereo not given)
inactive: [16] 91 % of control | [17] 107 % of control | [18] 92 % of control

Cc1c(C(=O)O)nc(C(Br)(Br)Br)[nH]c1=O
inactive: dose: 12.5 mg/kg/injection, schedule: Q01DX009 (ip), vehicle: distilled water + Tween-80 94 % of control | dose: 25.0 mg/kg/injection, schedule: Q01DX009 (ip), vehicle: distilled water + Tween-80 118 % of control | dose: 50.0 mg/kg/injection, schedule: Q01DX009 (ip), vehicle: distilled water + Tween-80 118 % of control | dose: 100.0 mg/kg/injection, schedule: Q01DX009 (ip), vehicle: distilled water + Tween-80 107 % of control | dose: 200.0 mg/kg/injection, schedule: Q01DX009 (ip), vehicle: distilled water + Tween-80 107 % of control

CCCC(C)(C)c1cc(C(C)C)cc(C(C)(C)CCC)c1O
inactive: dose: 12.5 mg/kg/injection, schedule: Q01DX009 (ip), vehicle: other 100 % of control | [1] 100 % of control | dose: 25.0 mg/kg/injection, schedule: Q01DX009 (ip), vehicle: saline + Tween-80 + alcohol 103 % of control | [2] 106 % of control | dose: 50.0 mg/kg/injection, schedule: Q01DX009 (ip), vehicle: saline + Tween-80 + alcohol 101 % of control | [3] 112 % of control | dose: 100.0 mg/kg/injection, schedule: Q01DX009 (ip), vehicle: saline + Tween-80 + alcohol 100 % of control | dose: 200.0 mg/kg/injection, schedule: Q01DX009 (ip), vehicle: saline + Tween-80 + alcohol 113 % of control

O=C1CSC(c2c(Cl)cccc2[N+](=O)[O-])N1c1nncs1 (stereo not given)
inactive: [20] 87 % of control | [21] 87 % of control | dose: 400.0 mg/kg/injection, schedule: Q04DX002 (ip), vehicle: saline with Tween-80 92 % of control

Cc1cc(N(C)C)ccc1/C=C/c1ccnc2ccccc12
inactive: dose: 25.0 mg/kg/injection, schedule: Q04DX002 (ip), vehicle: saline with Tween-80 109 % of control | dose: 50.0 mg/kg/injection, schedule: Q04DX002 (ip), vehicle: saline with Tween-80 118 % of control | [20] 113 % of control

CCN(CCCO)CCCO
inactive: [10] 102 % of control | [11] 93 % of control | [12] 95 % of control

COC(=O)Nc1nc2ccc(C(=O)OCC(C)C)cc2[nH]1
inactive: [20] 98 % of control | [21] 90 % of control

CC(=O)C(C)P(=O)(O)O (stereo not given)
inactive: [10] 99 % of control | [11] 101 % of control | [12] 106 % of control

CC12CC3(C)CC(C(Cl)C(=O)O)(C1)CC(C(Cl)C(=O)O)(C2)C3 (stereo not given)
inactive: dose: 50.0 mg/kg/injection, schedule: Q01DX009 (ip), vehicle: saline with Tween-80 103 % of control | [19] 100 % of control | dose: 200.0 mg/kg/injection, schedule: Q01DX009 (ip), vehicle: saline with Tween-80 107 % of control

CCn1c(=O)c2[nH]c(I)nc2n(CC)c1=O
inactive: dose: 25.0 mg/kg/injection, schedule: Q01DX009 (ip), vehicle: Klucel (hydroxypropylcellulose) (HPC) 99 % of control | dose: 50.0 mg/kg/injection, schedule: Q01DX009 (ip), vehicle: Klucel (hydroxypropylcellulose) (HPC) 99 % of control | dose: 100.0 mg/kg/injection, schedule: Q01DX009 (ip), vehicle: Klucel (hydroxypropylcellulose) (HPC) 106 % of control

Cc1nnc(Cl)c(C#N)c1C
inactive: [13] 104 % of control | [14] 92 % of control | [15] 95 % of control

COc1ccc2c(c1)CCC(Cc1ccc(Cl)cc1)C2c1ccc(OCCN2CCCC2)cc1 (stereo not given)
inactive: dose: 6.25 mg/kg/injection, schedule: Q01DX005 (ip), vehicle: suspension in saline 100 % of control | dose: 12.5 mg/kg/injection, schedule: Q01DX005 (ip), vehicle: suspension in saline 98 % of control | dose: 25.0 mg/kg/injection, schedule: Q01DX005 (ip), vehicle: suspension in saline 98 % of control | dose: 50.0 mg/kg/injection, schedule: Q01DX005 (ip), vehicle: suspension in saline 100 % of control

CCCCc1c(O)c(N=NC(N)=S)c2ccccc2c1O
inactive: [5] 95 % of control | [6] 94 % of control | [7] 91 % of control

CC(C)N=Cc1ccccc1O.CC(C)N=Cc1ccccc1O.[Cu]
inactive: dose: 25.0 mg/kg/injection, schedule: Q04DX003 (ip), vehicle: saline with Tween-80 100 % of control | dose: 50.0 mg/kg/injection, schedule: Q04DX003 (ip), vehicle: saline with Tween-80 100 % of control
